From US20250136559A1, “SMO MODULATOR COMPOUNDS” (OMASS THERAPEUTICS LIMITED, priority 2022, published 2025)

Key:
Format in all cases: cell-based
[1] = molecular target: T1, mouse SMO^WT (Mus musculus, UniProt P56726); test: Mouse assay: Gli1 qPCR in MEF cells stably expressing mouse SMO WT; settings: mSHh-treated, 24 hours; for IC50: Gli1 inhibition by qPCR, read-out: Mouse WT pIC50 (converted); for Mouse WT % Inh: percentage Gli1 inhibition
T1 construct: expressed in transfected cells
Summary of the method: (§1)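 MEFs stably expressing the SMO variant pre-treated with compound 1 h, then stimulated with mSHh and incubated 24 h at 37 °C. Gli1 mRNA quantified by one-step TaqMan qPCR with Gusb reference, four replicates per concentration; expressed as % Gli1 inhibition relative to mSHh-treated controls.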

[2] = molecular target: T2, human SMO D473H (Homo sapiens, UniProt Q99835, D473H); test: Human assay: Gli1 qPCR in MEF SMO-/- cells BacMam-transduced with hSMO D473H variant; settings: mSHh-treated, 24 hours; for IC50: Gli1 inhibition by qPCR, read-out: Human D473H pIC50 (converted); for Human D473H % Inh: percentage Gli1 inhibition
T2 construct: expressed in transfected cells; host or cells: SMO knock-out mouse embryonic fibroblasts (MEF SMO-/-), BacMam transduction
Procedure: Cell culture. All materials were purchased from Sigma-Aldrich, unless otherwise stated.
(§2) BacMam transduction and compound treatment. MEF^SMO−/− cells were transduced with BacMam virus (MOI 1:10 in the presence of 4.2 mM valproic acid) containing either the hSMO WT or desired receptor variant sequence. Transduced cells were seeded at 6000 cells per well in a Poly-D-Lysine coated 384-well plate (Greiner) before the spent culture medium was removed on the following day and replaced with assay medium (OptiMEM (Gibco) supplemented with 50 U/mL penicillin and 5 mg/mL streptomycin (supplied as a mixture), 0.1 mMMEM Non-Essential Amino Acids (supplied as 100× solution, ThermoFisher), 1 mM sodium pyruvate and 10 mM HEPES) containing test compounds at 2.5× final assay concentrations.
(§3) Cell lysis and one-step qPCR. The Cells-to-CT™ 1-Step TaqMan® Kit was used in conjunction with TaqMan primer-probe assays for the detection of Gill (FAM, Mm00494654_m1) and Gusb (VIC, Mm01197698_m1) genes (all purchased from Life Technologies). Following 24 hours cell treatment, spent medium was removed and cells were washed with PBS before the application of lysis and stop solution as per manufacturer's instructions. The qPCR reactions were run in a 384-well PCR plate using master mix prepared according to manufacturer's instructions and cell lysate samples from treatment wells. Real-time PCR amplification was detected using the Bio-Rad CFX384 Touch PCR system. Four experimental replicates (two cell replicates and two qPCR replicates) were performed for each compound concentration tested. Real-time data were analysed using the CFX Maestro software (Bio-Rad) and obtained expression values were converted to percentage Gill inhibition by normalising to the average Gill expression of mSHh-treated control samples

[3] = molecular target: T3, hSMO WT (Homo sapiens, UniProt Q99835); test: Human assay: Gli1 qPCR in MEF SMO-/- cells BacMam-transduced with hSMO WT; settings: mSHh-treated, 24 hours; for IC50: Gli1 inhibition by qPCR, read-out: Human WT pIC50 (converted); for Human WT % Inh: percentage Gli1 inhibition
T3 construct: expressed in transfected cells; host or cells: SMO knock-out mouse embryonic fibroblasts (MEF SMO-/-), BacMam transduction
Procedure: (§4) Cell culture. All materials were purchased from Sigma-Aldrich, unless otherwise stated. SMO knock-out mouse embryonic fibroblasts (MEF^SMO−/−) were maintained in Dulbecco's modified Eagle's medium (DMEM)/high-glucose medium supplemented with 10% foetal bovine serum (FBS, Invitrogen), 50 U/mL penicillin and 5 mg/mL streptomycin (supplied as a mixture), 0.1 mMMEM Non-Essential Amino Acids (supplied as 100× solution, ThermoFisher) and 1 mM sodium pyruvate at 37° C. in a humidified 95% air/5% CO2 atmosphere.
as §2, with “concentrations. After 1 hour incubation, cells were treated with assay medium containing mSHh prepared at 2.5× of final assay concentrations specified in the text and incubated for a further 24 hours at 37° C. in a humidified 95% air/5% […] atmosphere prior to qPCR analysis.” for “concentrations.”
as §3

[4] = molecular target: T4, mouse SMO^W535L (Mus musculus, UniProt P56726, W539L); test: Mouse assay: Gli1 qPCR in MEF cells stably expressing mouse SMO W535L; settings: mSHh-treated, 24 hours; for IC50: Gli1 inhibition by qPCR, read-out: Mouse W535L pIC50 (converted); for Mouse W535L % Inh: percentage Gli1 inhibition
T4 construct: expressed in transfected cells
Summary of the method: as §1

[5] = molecular target: T5, human SMO W535L (Homo sapiens, UniProt Q99835, W535L); test: Human assay: Gli1 qPCR in MEF SMO-/- cells BacMam-transduced with hSMO W535L variant; settings: mSHh-treated, 24 hours; for IC50: Gli1 inhibition by qPCR, read-out: Human W535L pIC50 (converted); for Human W535L % Inh: percentage Gli1 inhibition
T5 construct: expressed in transfected cells; host or cells: SMO knock-out mouse embryonic fibroblasts (MEF SMO-/-), BacMam transduction
Procedure: as §4
as §2, with “concentrations. After 1 hour incubation, cells were treated with assay medium containing mSHh prepared at 2.5× of final assay concentrations specified in the text and incubated for a further 24 hours at 37° C. in a humidified 95% air/5% […] atmosphere prior to qPCR analysis.” for “concentrations.”
as §3

[6] = molecular target: T6, mouse SMO^D473H (Mus musculus, UniProt P56726, D477H); test: Mouse assay: Gli1 qPCR in MEF cells stably expressing mouse SMO D473H; settings: mSHh-treated, 24 hours; for IC50: Gli1 inhibition by qPCR, read-out: Mouse D473H pIC50 (converted); for Mouse D473H % Inh: percentage Gli1 inhibition
T6 construct: expressed in transfected cells
Summary of the method: as §1

T4 sequence (P56726 33-793 W539L): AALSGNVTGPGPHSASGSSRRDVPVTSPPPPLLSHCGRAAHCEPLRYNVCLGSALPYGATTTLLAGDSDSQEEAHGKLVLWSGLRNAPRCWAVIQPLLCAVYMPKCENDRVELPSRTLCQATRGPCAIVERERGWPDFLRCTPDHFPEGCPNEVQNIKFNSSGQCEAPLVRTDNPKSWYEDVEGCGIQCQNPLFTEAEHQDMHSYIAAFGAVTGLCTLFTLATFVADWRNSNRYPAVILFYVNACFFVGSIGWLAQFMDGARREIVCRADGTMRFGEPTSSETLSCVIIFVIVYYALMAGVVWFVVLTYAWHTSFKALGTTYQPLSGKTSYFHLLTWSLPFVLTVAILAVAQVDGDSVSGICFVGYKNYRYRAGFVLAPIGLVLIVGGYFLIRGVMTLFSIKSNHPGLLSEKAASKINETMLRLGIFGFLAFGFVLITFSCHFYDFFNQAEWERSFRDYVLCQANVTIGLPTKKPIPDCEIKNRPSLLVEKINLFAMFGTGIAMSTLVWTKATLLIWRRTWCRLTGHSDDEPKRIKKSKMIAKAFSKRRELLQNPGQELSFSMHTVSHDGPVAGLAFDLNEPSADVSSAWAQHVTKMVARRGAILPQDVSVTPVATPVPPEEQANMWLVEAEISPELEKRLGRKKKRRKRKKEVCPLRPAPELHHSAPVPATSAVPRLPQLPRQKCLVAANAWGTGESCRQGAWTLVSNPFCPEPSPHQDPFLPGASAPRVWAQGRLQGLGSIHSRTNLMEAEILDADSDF
T5 sequence (Q99835 28-787 W535L): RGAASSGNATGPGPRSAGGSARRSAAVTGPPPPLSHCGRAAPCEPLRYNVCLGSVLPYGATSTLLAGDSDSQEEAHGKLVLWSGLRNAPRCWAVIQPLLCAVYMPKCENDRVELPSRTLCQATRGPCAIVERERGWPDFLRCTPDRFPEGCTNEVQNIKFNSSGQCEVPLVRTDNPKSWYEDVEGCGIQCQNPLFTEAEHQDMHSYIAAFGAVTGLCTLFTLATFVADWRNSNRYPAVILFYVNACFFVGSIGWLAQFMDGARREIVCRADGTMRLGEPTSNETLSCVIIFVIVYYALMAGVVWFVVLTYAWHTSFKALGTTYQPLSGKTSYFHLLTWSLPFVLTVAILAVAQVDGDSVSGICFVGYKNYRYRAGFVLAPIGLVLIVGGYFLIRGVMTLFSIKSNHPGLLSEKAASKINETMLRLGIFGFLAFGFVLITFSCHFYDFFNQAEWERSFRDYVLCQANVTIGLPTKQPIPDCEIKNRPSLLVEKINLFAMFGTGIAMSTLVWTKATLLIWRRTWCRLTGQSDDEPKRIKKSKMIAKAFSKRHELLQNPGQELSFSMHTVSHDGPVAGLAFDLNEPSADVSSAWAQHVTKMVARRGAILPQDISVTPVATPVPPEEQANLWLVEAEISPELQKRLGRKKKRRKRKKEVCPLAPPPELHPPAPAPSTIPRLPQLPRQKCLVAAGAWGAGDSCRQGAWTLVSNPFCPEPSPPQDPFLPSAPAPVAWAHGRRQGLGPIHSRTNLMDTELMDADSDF
T6 sequence (P56726 33-793 D477H): as the sequence (P56726 33-793 W539L) above, with D445H, L507W counted along it
T2 sequence (Q99835 28-787 D473H): as the sequence (Q99835 28-787 W535L) above, with D446H, L508W counted along it
T1 sequence (P56726 33-793): as the sequence (P56726 33-793 W539L) above, with L507W counted along it
T3 sequence (Q99835 28-787): as the sequence (Q99835 28-787 W535L) above, with L508W counted along it

IC50 [1] [nM]	Mouse WT % Inh [1] [%]	IC50 [2] [nM]	Human D473H % Inh [2] [%]	IC50 [3] [nM]	Human WT % Inh [3] [%]	IC50 [4] [nM]	Mouse W535L % Inh [4] [%]	IC50 [5] [nM]	Human W535L % Inh [5] [%]	IC50 [6] [nM]	Mouse D473H % Inh [6] [%]	SMILES
0.794	97.0	63.1	111.9	0.794	99.2	5.01	58.6	6.31	92.5	6.31	97.6	Cc1c(-c2ccc(NC(=O)c3ccc(Cl)c(CN4CCS(=O)(=O)CC4)c3)cc2)nn(C)c1C1CC1 [Example 4-26, 4-Chloro-N-[4-(5-cyclopropyl-1,4-dimethylpyrazol-3-yl)phenyl]-3-[(1,1-dioxo-1,4-thiazinan-4-yl)methyl]benzamide]
5.01	95.4	631	76.5	–	–	39.8	60.2	5.01	87.8	39.8	95.4	O=C(Nc1ccc(-c2nc(C3CC3)n[nH]2)cc1)c1cc(Cl)cc(CN2CCS(=O)(=O)CC2)c1 [Example 2-4, 3-Chloro-N-[4-(5-cyclopropyl-1H-1,2,4-triazol-3-yl)phenyl]-5-[(1,1-dioxo-1,4-thiazinan-4-yl)methyl]benzamide]
0.2	97.1	25.1	103.2	0.316	93.6	10	71.9	12.6	95.6	2	97.4	Cc1oc(-c2ccc(NC(=O)c3ccc(F)c(CN4CCS(=O)(=O)CC4)c3)cc2)nc1C1CC1 [Example 4-3, N-[4-(4-Cyclopropyl-5-methyl-1,3-oxazol-2-yl)phenyl]-3-[(1,1-dioxo-1,4-thiazinan-4-yl)methyl]-4-fluorobenzamide]
2	97.0	100	111.1	1.26	98.6	3.98	49.2	15.8	89.9	5.01	97.6	Cc1c(-c2ccc(NC(=O)c3ccc(Cl)c(CN4CCS(=O)(=O)CC4)c3)cc2)n[nH]c1C1CC1 [Example 4-22, 4-chloro-N-[4-(5-cyclopropyl-4-methyl-1H-pyrazol-3-yl)phenyl]-3-[(1,1-dioxo-1,4-thiazinan-4-yl)methyl]benzamide]
10	95.8	794	73.6	–	–	126	67.2	7.94	79.1	126	91.3	O=C(Nc1ccc(-c2nc(C3CC3)n[nH]2)cc1)c1cc(F)cc(CN2CCS(=O)(=O)CC2)c1 [Example 2-2, N-[4-(5-Cyclopropyl-1H-1,2,4-triazol-3-yl)phenyl]-3-[(1,1-dioxo-1,4-thiazinan-4-yl)methyl]-5-fluorobenzamide]
2	98.8	–	–	–	–	63.1	82.7	–	–	7.94	98.1	Cc1oc(-c2ccc(NC(=O)c3ccc(Cl)c(CN4CCS(=O)(=O)CC4)c3)cn2)nc1C1CC1 [Example 5-2, 4-Chloro-N-[6-(4-cyclopropyl-5-methyl-1,3-oxazol-2-yl)pyridin-3-yl]-3-[(1,1-dioxo-1,4-thiazinan-4-yl)methyl]benzamide]

The remaining lines, values behind:

SMILES	IC50 [1] [nM]	Mouse WT % Inh [1] [%]	IC50 [2] [nM]	Human D473H % Inh [2] [%]	IC50 [3] [nM]	Human WT % Inh [3] [%]	IC50 [4] [nM]	Mouse W535L % Inh [4] [%]	IC50 [5] [nM]	Human W535L % Inh [5] [%]	IC50 [6] [nM]	Mouse D473H % Inh [6] [%]
O=C(Nc1ccc(-c2nc(C3CCCC3)n[nH]2)cc1)c1cccc(CN2CCS(=O)(=O)CC2)c1 [Example 3-5, N-[4-(3-Cyclopentyl-1H-1,2,4-triazol-5-yl)phenyl]-3-[(1,1-dioxo-1,4-thiazinan-4-yl)methyl]benzamide]	10	96.6	251	88.3	2	83.4	15.8	42.2	2.51	75.4	50.1	96.7
O=C(Nc1ccc(-c2noc(Cc3ccc(F)cc3)n2)cc1)c1cccc(CN2CCS(=O)(=O)CC2)c1 [Example 4-17, 3-[(1,1-Dioxo-1,4-thiazinan-4-yl)methyl]-N-[4-[5-[(4-fluorophenyl)methyl]-1,2,4-oxadiazol-3-yl]phenyl]benzamide]	2	97.2	39.8	114.2	0.794	99.3	6.31	68.6	20	102.7	7.94	97.4
CS(=O)(=O)c1ccc(C(=O)Nc2ccc(Cl)c(-c3ccccn3)c2)c(Cl)c1 [Vismodegib, reference compound]	–	–	–	45.4	–	100.1	–	–	–	92.6	–	–
Cn1nc(-c2ccc(NC(=O)c3cccc(CN4CCS(=O)(=O)CC4)c3)cn2)cc1C1CC1 [Example 5-4, N-[6-(5-Cyclopropyl-1-methylpyrazol-3-yl)pyridin-3-yl]-3-[(1,1-dioxo-1,4-thiazinan-4-yl)methyl]benzamide]	7.94	97.3	794	107.7	–	–	251	66.4	39.8	85.9	126	97.0
CC1CN(Cc2cccc(C(=O)Nc3ccc(-c4nc(C5CC5)n[nH]4)cc3)c2)CCS1(=O)=O (stereo not shown) [Example 1-2, N-[4-(3-Cyclopropyl-1H-1,2,4-triazol-5-yl)phenyl]-3-[(2-methyl-1,1-dioxo-1,4-thiazinan-4-yl)methyl]benzamide]	15.8	97.3	200	85	–	–	200	63.3	20	78.2	126	95.6
CN(C)c1nnc(-c2ccc(NC(=O)c3cccc(CN4CCS(=O)(=O)CC4)c3)cc2)o1 [Example 4-9, N-[4-[5-(Dimethylamino)-1,3,4-oxadiazol-2-yl]phenyl]-3-[(1,1-dioxo-1,4-thiazinan-4-yl)methyl]benzamide]	39.8	99.6	–	–	–	–	794	70.0	–	–	316	99.1
